Laboratory results published in ChEMBL document CHEMBL6078642, “Design, Synthesis, and Activity Evaluation of BRD4 PROTAC Based on Alkenyl Oxindole-DCAF11 Pair” (J Med Chem, 2024).
Active and inactive are the calls of the source. The calls are words filed in the database; no cut-off is given here.

Key:
[1] = system: MDA-MB-231; test: Antiproliferative activity against human MDA-MB-231 cells assessed as reduction in cell viability incubated for 2 days in presence of tert-butyl 2-(4-methyl-2-((2-oxo-6-(trifluoromethyl)indolin-3-ylidene)methyl)phenoxy)acetate by CCK8 assay; assay type: functional, cell-based; settings: MDA-MB-231, 48 h
[2] = system: MDA-MB-231; test: Induction of apoptosis in human MDA-MB-231 cells assessed as increase in cleaved caspase-7 level by immunoblot analysis; assay type: functional, cell-based
[3] = system: MDA-MB-231; test: Induction of apoptosis in human MDA-MB-231 cells assessed as increase in cleaved PARP level by immunoblot analysis; assay type: functional, cell-based
[4] = system: MDA-MB-468; test: Antiproliferative activity against human MDA-MB-468 cells assessed as reduction in cell viability incubated for 2 days by CCK8 assay; assay type: functional, cell-based; settings: MDA-MB-468, 48 h
[5] = system: MDA-MB-468; test: Antiproliferative activity against human MDA-MB-468 cells assessed as reduction in cell viability incubated for 2 days in presence of tert-butyl 2-(4-methyl-2-((2-oxo-6-(trifluoromethyl)indolin-3-ylidene)methyl)phenoxy)acetate by CCK8 assay; assay type: functional, cell-based; settings: MDA-MB-468, 48 h
[6] = system: MDA-MB-231; test: Antiproliferative activity against human MDA-MB-231 cells assessed as reduction in cell viability incubated for 2 days by CCK8 assay; assay type: functional, cell-based; settings: MDA-MB-231, 48 h
[7] = system: MDA-MB-231; test: Induction of BRD4 degradation in human MDA-MB-231 cells at 10 uM incubated for 12 hrs by immunoblot analysis; assay type: cell-based
[8] = system: MDA-MB-231; test: Antiproliferative activity against human MDA-MB-231 cells assessed as reduction in cell viability incubated for 2 days in presence of JQ1 by CCK8 assay; assay type: functional, cell-based; settings: MDA-MB-231, 48 h
[9] = biological target: DCAF11-BRD4 (Homo sapiens, UniProt O60885+Q8TEB1); test: PROTAC activity at DCAF11/BRD4 in human MDA-MB-231 cells assessed as induction of BRD4 degradation at 10 uM incubated for 12 hrs by immunoblot analysis; assay type: cell-based
Chain of DCAF11-BRD4 (Q8TEB1 whole entry, looked up, other chains not shown): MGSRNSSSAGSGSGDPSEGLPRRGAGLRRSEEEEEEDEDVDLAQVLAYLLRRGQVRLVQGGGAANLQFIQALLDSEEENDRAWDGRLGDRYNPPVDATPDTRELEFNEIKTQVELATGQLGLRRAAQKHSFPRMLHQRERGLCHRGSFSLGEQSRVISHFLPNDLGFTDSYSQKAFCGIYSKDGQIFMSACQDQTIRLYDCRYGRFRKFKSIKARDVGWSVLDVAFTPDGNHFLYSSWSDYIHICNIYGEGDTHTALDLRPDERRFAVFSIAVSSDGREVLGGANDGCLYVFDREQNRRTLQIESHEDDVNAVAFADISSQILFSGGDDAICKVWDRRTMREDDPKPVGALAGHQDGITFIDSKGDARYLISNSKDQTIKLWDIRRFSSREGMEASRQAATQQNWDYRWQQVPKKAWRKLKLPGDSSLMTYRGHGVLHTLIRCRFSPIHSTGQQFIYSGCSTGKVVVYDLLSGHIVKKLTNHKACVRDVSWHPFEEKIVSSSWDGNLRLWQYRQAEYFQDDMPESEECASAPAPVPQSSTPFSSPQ

[10] = system: MDA-MB-468; test: Antiproliferative activity against human MDA-MB-468 cells assessed as reduction in cell viability incubated for 2 days in presence of JQ1 by CCK8 assay; assay type: functional, cell-based; settings: MDA-MB-468, 48 h

Compound	IC50 [1]	Activity [2]	Activity [3]	IC50 [4]	IC50 [5]	IC50 [6]	Activity [7]	IC50 [8]	Activity [9]	IC50 [10]
Cc1sc2c(c1C)C(c1ccc(Cl)cc1)=N[C@@H](CC(=O)O)c1nnc(C)n1-2	3.71 µM	inactive	inactive	25.9 µM	10 µM	5.13 µM	inactive	–	–	–
Cc1ccc(OCC(=O)OC(C)(C)C)c(/C=C2\C(=O)Nc3cc(C(F)(F)F)ccc32)c1	–	inactive	inactive	26.6 µM	–	11.4 µM	–	3.71 µM	inactive	10 µM
